According to ChEMBL document CHEMBL4831484, “Identification of 3, 4-disubstituted pyridine derivatives as novel CDK8 inhibitors” (Eur J Med Chem, 2021):
The source made the active and inactive calls. No cut-off for these calls is given here.

What was measured:
[1] = target: CDK8/Cyclin C (Homo sapiens) (UniProt P49336+P24863); test: Inhibition of CDK8/Cyclin C (unknown origin) at 10 uM measured after 1 hr by plate reader assay relative to control; assay type: protein-complex assay
HCT-116 [2] = test: Antiproliferative activity against human HCT-116 cells assessed as inhibition of cell growth measured after 72 hrs by […]; assay type: functional
CDK8/Cyclin C = CDK8/Cyclin C (Homo sapiens, UniProt P49336); test: Inhibition of CDK8/Cyclin C (unknown origin) measured after 1 hr by plate reader assay; assay type: protein-complex assay
A549 = test: Antiproliferative activity against human A549 cells assessed as inhibition of cell growth measured after 72 hrs by SRB assay; assay type: functional
MDA-MB-231 [3] = test: Antiproliferative activity against human MDA-MB-231 cells assessed as inhibition of cell growth measured after 72 hrs by SRB assay; assay type: functional
KB = test: Antiproliferative activity against human KB cells assessed as inhibition of cell growth measured after 72 hrs by SRB assay; assay type: functional
[4] = Antiproliferative activity against human KB-VIN cells assessed as inhibition of cell growth measured after 72 hrs by SRB assay; assay type: functional; conditions: KBVIN
MCF7 = test: Antiproliferative activity against human MCF7 cells assessed as inhibition of cell growth measured after 72 hrs by SRB assay; assay type: functional
[5] = Toxicity in BALB/c mouse xenografted with human HCT-116 cells assessed as mortality at 150 mg/kg, po measured after 14 days; assay type: organism-based; conditions: in vivo, 336 h, time 14 day
[6] = Toxicity in BALB/c mouse xenografted with human HCT-116 cells assessed as changes in body weight at 150 mg/kg, po measured after 14 days; assay type: organism-based; conditions: in vivo, 336 h, time 14 day
HCT-116 [7] = test: Antitumour activity against human HCT-116 cells assessed as decrease in tumor volume at 150 mg/kg, po measured after 14 days relative to control; assay type: functional; set-up: scale not given: the % may be the effect or the level left; conditions: time 14 day
[8] = AUC (0 to 24h) in ICR mouse at 150 mg/kg, po measured after 24 hrs by LC-MS/MS analysis; assay type: ADME, organism-based; set-up: route oral, dose 150 mg/kg, time 24 hrs; conditions: in vivo
[9] = MRT (0 to 24h) in ICR mouse at 150 mg/kg, po measured after 24 hrs by LC-MS/MS analysis; assay type: ADME, organism-based; conditions: in vivo
[10] = Half-life in ICR mouse at 150 mg/kg, po measured after 24 hrs by LC-MS/MS analysis; assay type: ADME, organism-based; conditions: in vivo
[11] = Tmax in ICR mouse at 150 mg/kg, po measured after 24 hrs by LC-MS/MS analysis; assay type: ADME, organism-based; conditions: in vivo
[12] = Cmax in ICR mouse at 150 mg/kg, po measured after 24 hrs by LC-MS/MS analysis; assay type: ADME, organism-based; set-up: route oral, time 24 hrs, dose 150 mg/kg; conditions: in vivo
MDA-MB-231 [13] = test: Induction of cell cycle arrest in human MDA-MB-231 cells assessed as accumulation of cells at G2/M phase measured after 24 hrs by PI staining based flow cytometry assay; assay type: functional
[14] = target: Cyclin-dependent kinase 8 (Homo sapiens) (UniProt P49336); test: Inhibition of CDK8 (unknown origin) at 10 uM
[15] = target: Cyclin-dependent kinase 7 (Homo sapiens) (UniProt P50613); test: Inhibition of CDK7 (unknown origin) at 10 uM
Chain of Cyclin-dependent kinase 7 (Homo sapiens) (P50613 whole entry): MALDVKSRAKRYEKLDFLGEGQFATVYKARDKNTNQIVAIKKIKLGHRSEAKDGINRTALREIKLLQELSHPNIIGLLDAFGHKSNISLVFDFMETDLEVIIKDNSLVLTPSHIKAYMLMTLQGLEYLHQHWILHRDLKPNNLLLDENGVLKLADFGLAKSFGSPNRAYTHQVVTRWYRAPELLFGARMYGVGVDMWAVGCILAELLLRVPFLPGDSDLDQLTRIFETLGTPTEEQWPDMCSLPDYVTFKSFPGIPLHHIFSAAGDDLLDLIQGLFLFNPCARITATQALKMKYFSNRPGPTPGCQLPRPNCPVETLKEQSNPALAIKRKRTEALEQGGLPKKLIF

Chain of CDK8/Cyclin C (P49336 whole entry): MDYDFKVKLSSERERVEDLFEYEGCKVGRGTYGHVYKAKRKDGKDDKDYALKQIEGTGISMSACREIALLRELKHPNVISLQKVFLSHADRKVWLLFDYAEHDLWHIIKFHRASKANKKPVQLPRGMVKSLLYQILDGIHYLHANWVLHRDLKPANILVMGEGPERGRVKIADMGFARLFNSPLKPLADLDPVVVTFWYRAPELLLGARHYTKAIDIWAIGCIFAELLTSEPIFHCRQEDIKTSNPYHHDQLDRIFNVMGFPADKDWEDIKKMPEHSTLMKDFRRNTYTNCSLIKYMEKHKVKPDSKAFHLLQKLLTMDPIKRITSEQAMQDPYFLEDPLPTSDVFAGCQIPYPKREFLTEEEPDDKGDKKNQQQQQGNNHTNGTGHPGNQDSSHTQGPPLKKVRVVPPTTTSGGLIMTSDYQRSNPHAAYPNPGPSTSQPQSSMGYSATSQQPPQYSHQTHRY
Chain of CDK8/Cyclin C (P24863 whole entry, further chain): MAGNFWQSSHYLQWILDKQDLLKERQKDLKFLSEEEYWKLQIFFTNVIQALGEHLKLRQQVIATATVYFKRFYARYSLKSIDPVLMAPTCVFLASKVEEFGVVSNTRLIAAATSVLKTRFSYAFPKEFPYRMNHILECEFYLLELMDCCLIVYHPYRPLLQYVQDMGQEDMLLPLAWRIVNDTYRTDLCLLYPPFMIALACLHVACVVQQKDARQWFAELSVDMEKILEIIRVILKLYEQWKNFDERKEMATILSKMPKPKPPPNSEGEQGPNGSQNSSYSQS
Chain of Cyclin-dependent kinase 8 (Homo sapiens) (P49336 whole entry): as the sequence (P49336 whole entry) above

Row | SMILES | inhibition [1] [%] | GI50 (HCT-116 [2]) [µM] | IC50 (CDK8/Cyclin C) [µM] | GI50 (A549) [µM] | GI50 (MDA-MB-231 [3]) [µM] | GI50 (KB) [µM] | GI50 [4] [µM] | GI50 (MCF7) [µM] | Activity [5] | Activity [6] | Activity (HCT-116 [7]) [%] | AUC(0-t) at 24 h [8] [ng·h/mL] | MRT last at 24 h [9] [h] | half-life [10] [h] | Tmax [11] [h] | Cmax [12] [ng/mL] | Activity (MDA-MB-231 [13]) | inhibition [14] | inhibition [15]
1 | COC(=O)/C=C/c1ccncc1-c1ccc2ccccc2c1 | 102 | 0.35 | 0.0406 | 0.76 | 4.71 | 6.73 | 5.46 | 8.17 | Non-Toxic | Non-Toxic | 44 | 153 | 2.68 | 3.93 | 0.57 | 46.6 |  |  | 
2 | CN(C)C(=O)/C=C/c1ccncc1-c1ccc2ccccc2c1 | 100 | 4.54 | 0.0301 | 5.8 | 7.99 | 7.76 | 4.93 | 8.19 |  |  |  |  |  |  |  |  | Dose-Dependent Effect |  | 
3 | O=C(/C=C/c1ccncc1-c1ccc2cc[nH]c2c1)N1CCOCC1 | 102 | > 30 | 0.0439 | > 10 | > 10 | > 10 | > 10 | > 10 |  |  |  |  |  |  |  |  |  | Active | Active
